This is an account of results in PubChem BioAssay (NCI).

Among the test systems are HCT-116 colon; NCI/ADR-RES ovarian; HT29 colon; OVCAR-5 ovarian; MOLT-4 leukemia; SF-295 CNS; LOX IMVI melanoma; BT-549 breast.
Holding throughout (experiment): growth of human tumour cells (NCI), 48 h

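These data come from cells grown in 96-well plates and exposed to compound for 48 hours at five concentrations. GI50: concentration for 50% inhibition of growth. Definition used: TGI = concentration required for complete inhibition of growth.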 Some results are limits rather than exact numbers.

Consider `O=C(Nc1cc(Cl)cc(Cl)c1)c1ccc(NC2=C(Cl)C(=O)N(Cc3ccc(Cl)cc3Cl)C2=O)cc1`, for which the GI50 in the assay with HCT-116 colon was 4.06 µM; in the assay on NCI/ADR-RES ovarian it was 29.7 µM; in the assay on HT29 colon it was 49.3 µM; in the assay with OVCAR-5 ovarian, above 100 µM; in the assay on MOLT-4 leukemia it was 0.249 µM; with SF-295 CNS, 43.2 µM. Besides, the GI50 with LOX IMVI melanoma is 1.5 µM; in the assay with BT-549 breast, 1.57 µM. The TGI in the assay with HCT-116 colon is 16.9 µM; in the assay with NCI/ADR-RES ovarian, above 100 µM; with HT29 colon it was above 100 µM; in the assay on OVCAR-5 ovarian, above 100 µM; in the assay on MOLT-4 leukemia it was 1.53 µM; in the assay on SF-295 CNS it was above 100 µM. The TGI amounted to 4.19 µM with LOX IMVI melanoma and 7.22 µM in the assay with BT-549 breast.
For `N#Cc1nc2c(S(=O)(=O)c3ccccc3)c(N)n(Cc3cccnc3)c2nc1C#N`, the GI50 in the assay with HCT-116 colon is 9.13 µM; in the assay on NCI/ADR-RES ovarian it was 92.5 µM; with HT29 colon, above 100 µM; in the assay on OVCAR-5 ovarian, above 100 µM; with MOLT-4 leukemia, above 100 µM; in the assay with SF-295 CNS it was 20.5 µM. The figures for the GI50 in the assay on LOX IMVI melanoma and with BT-549 breast were 25.8 µM and 4.6 µM, respectively. For the same compound, the TGI was above 100 µM in the assay with HCT-116 colon; above 100 µM in the assay with NCI/ADR-RES ovarian; above 100 µM in the assay on HT29 colon; above 100 µM in the assay on OVCAR-5 ovarian; above 100 µM with MOLT-4 leukemia; 50.7 µM with SF-295 CNS. The TGI in the assay on LOX IMVI melanoma was above 100 µM; in the assay on BT-549 breast it was 37.3 µM.
For the compound `CC1(C)N=C(N)N=C(N)N1c1ccc(OCCCCOc2ccc(S(=O)(=O)F)cc2)c(Cl)c1`, the GI50 in the assay on HCT-116 colon was 0.0463 µM; in the assay with NCI/ADR-RES ovarian it was 71.6 µM; in the assay on HT29 colon, 0.0519 µM; in the assay with OVCAR-5 ovarian it was 0.302 µM; with MOLT-4 leukemia, 0.135 µM; with SF-295 CNS it was 0.286 µM. For the same compound, the GI50 with LOX IMVI melanoma was 0.0761 µM; in the assay with BT-549 breast, 1.32 µM. Besides, the TGI with HCT-116 colon was 16.7 µM; in the assay on NCI/ADR-RES ovarian it was above 100 µM; in the assay with HT29 colon it was 13.4 µM; in the assay on OVCAR-5 ovarian, 22.7 µM; in the assay on MOLT-4 leukemia, 16.3 µM; in the assay with SF-295 CNS it was 11.5 µM. The TGI with LOX IMVI melanoma was 14.3 µM; in the assay on BT-549 breast it was 17.3 µM.
Consider `O=C(/C=C/c1cccnc1)NCCCCC1CCCN(C(=O)c2ccccc2)C1` (stereo unspecified), for which the GI50 is below 0.01 µM in the assay on HCT-116 colon; 0.0103 µM with NCI/ADR-RES ovarian; below 0.01 µM in the assay with HT29 colon; 23 µM in the assay on MOLT-4 leukemia; below 0.0474 µM with SF-295 CNS; 5.67 µM with LOX IMVI melanoma. The TGI was above 100 µM in the assay with HCT-116 colon; above 100 µM in the assay with NCI/ADR-RES ovarian; above 100 µM in the assay on HT29 colon; above 100 µM with OVCAR-5 ovarian; above 100 µM with MOLT-4 leukemia; above 87.1 µM in the assay on SF-295 CNS. In addition, the TGI in the assay with LOX IMVI melanoma and in the assay on BT-549 breast was above 100 µM in each case.
As for `CCn1c(CN2CCN(Cc3ccccc3)CC2)nc2cc(NC(=O)c3cccs3)ccc21`, the GI50 with HCT-116 colon was 14.4 µM; with NCI/ADR-RES ovarian, 28.9 µM; in the assay on HT29 colon it was 16.8 µM; with OVCAR-5 ovarian it was 17 µM; in the assay with MOLT-4 leukemia, 13.2 µM; in the assay with SF-295 CNS, 16.7 µM. Besides, the GI50 is 19.4 µM in the assay with LOX IMVI melanoma and 13.4 µM in the assay on BT-549 breast. Also, the TGI was 38.7 µM in the assay on HCT-116 colon; above 100 µM in the assay with NCI/ADR-RES ovarian; 47.3 µM with HT29 colon; 63.3 µM in the assay with OVCAR-5 ovarian; 37.9 µM in the assay on MOLT-4 leukemia; 34.7 µM with SF-295 CNS. The results for the TGI with LOX IMVI melanoma and in the assay with BT-549 breast were 41.7 µM and 28.9 µM, respectively.
For the compound `O=C1c2cc3c(cc2-c2c1c1ccc(Cl)cc1c(=O)n2CCCNCCO)OCO3`, the GI50 with HCT-116 colon was 0.104 µM; in the assay on NCI/ADR-RES ovarian, 0.0585 µM; in the assay on HT29 colon it was 0.135 µM; with OVCAR-5 ovarian it was 1.71 µM; in the assay with MOLT-4 leukemia, 0.031 µM; in the assay with SF-295 CNS it was 0.0378 µM. Further, the GI50 in the assay on LOX IMVI melanoma is 0.0467 µM; in the assay with BT-549 breast, 0.941 µM. For the same compound, the TGI was 0.588 µM with HCT-116 colon; 1.9 µM with NCI/ADR-RES ovarian; 2.02 µM with HT29 colon; 3.71 µM in the assay with OVCAR-5 ovarian; 0.512 µM in the assay on MOLT-4 leukemia; 1.38 µM with SF-295 CNS. The TGI is 1.3 µM in the assay on LOX IMVI melanoma and 2.49 µM in the assay with BT-549 breast.
On to `COc1ccccc1CCN=C1NC(=O)/C(=C/c2ccc3ncccc3c2)S1`, for which the GI50 in the assay with HCT-116 colon is 1.63 µM; in the assay with NCI/ADR-RES ovarian, 6.21 µM; in the assay on HT29 colon it was 2.47 µM; in the assay on OVCAR-5 ovarian it was 7.06 µM; in the assay with MOLT-4 leukemia, 6.42 µM; in the assay on SF-295 CNS it was 5.86 µM. The GI50 with LOX IMVI melanoma was 3.15 µM; in the assay with BT-549 breast, 6.22 µM. Besides, the TGI in the assay with HCT-116 colon is above 12.4 µM; with NCI/ADR-RES ovarian it was above 25 µM; with HT29 colon it was 15.7 µM; with OVCAR-5 ovarian, above 23.1 µM; in the assay on MOLT-4 leukemia, 15.7 µM; with SF-295 CNS, above 21.8 µM. The TGI in the assay with LOX IMVI melanoma was 18.2 µM; in the assay with BT-549 breast, above 20.5 µM.
As to `COc1cc(C)c(Cl)cc1C1=NN(c2ccc(S(N)(=O)=O)cc2)C(/C=C/c2ccccc2)C1` (stereo unspecified), the GI50 is 1.9 µM in the assay on HCT-116 colon; 3.46 µM in the assay on NCI/ADR-RES ovarian; 1.8 µM with HT29 colon; 4.04 µM in the assay on OVCAR-5 ovarian; 3.37 µM in the assay with MOLT-4 leukemia; 3.17 µM in the assay on SF-295 CNS. Also, the GI50 is 1.67 µM with LOX IMVI melanoma and 2.35 µM in the assay on BT-549 breast. Besides, the TGI with HCT-116 colon stood at 4.72 µM; in the assay with NCI/ADR-RES ovarian it was 37.7 µM; in the assay on HT29 colon, 4.07 µM; with OVCAR-5 ovarian it was 57.3 µM; with MOLT-4 leukemia it was 64.4 µM; with SF-295 CNS, 13.6 µM. For the same compound, the TGI in the assay on LOX IMVI melanoma amounted to 3.21 µM; with BT-549 breast, 4.76 µM.
Regarding `O=C(CN1CCN(CCCOc2c(-c3ccccc3)oc3ccccc3c2=O)CC1)Nc1ccc(Cl)cc1C(=O)c1ccccc1Cl`, the GI50 was 4.44 µM in the assay with HCT-116 colon; 5.74 µM in the assay with NCI/ADR-RES ovarian; 3.09 µM with HT29 colon; 27.2 µM in the assay with OVCAR-5 ovarian; 3.98 µM with MOLT-4 leukemia; 4.79 µM with SF-295 CNS. In addition, the GI50 with LOX IMVI melanoma was 3.87 µM; with BT-549 breast, 14.1 µM. Besides, the TGI is 16.6 µM in the assay on HCT-116 colon; 26.4 µM with NCI/ADR-RES ovarian; above 100 µM in the assay with HT29 colon; 90.8 µM with OVCAR-5 ovarian; 66.7 µM in the assay with MOLT-4 leukemia; 18.2 µM in the assay on SF-295 CNS. Further, the TGI came out at 14.4 µM in the assay with LOX IMVI melanoma and 40.5 µM with BT-549 breast.
For `Nc1c(Br)cc(Br)c2c1[nH]c(=O)c1ccccc12`, the GI50 is 3.98 µM in the assay with HCT-116 colon; 6.68 µM with NCI/ADR-RES ovarian; above 29.7 µM with HT29 colon; 25.7 µM in the assay with OVCAR-5 ovarian; 18.4 µM in the assay with MOLT-4 leukemia; 3.1 µM with SF-295 CNS. The GI50 was 20.5 µM in the assay with LOX IMVI melanoma and 7.05 µM with BT-549 breast. Also, the TGI in the assay on HCT-116 colon is 20.2 µM; in the assay with NCI/ADR-RES ovarian, 66.7 µM; with HT29 colon, above 100 µM; with OVCAR-5 ovarian, above 100 µM; with MOLT-4 leukemia it was above 63.8 µM; in the assay with SF-295 CNS, 10.2 µM. The TGI in the assay on LOX IMVI melanoma was above 100 µM; with BT-549 breast it was 41 µM.
As for `CCC(CO)Nc1nc(NCc2ccccc2O)c2ncn(C(C)C)c2n1` (stereo unspecified), the GI50 was 2.65 µM with HCT-116 colon; 6.63 µM in the assay on NCI/ADR-RES ovarian; 3.67 µM in the assay with HT29 colon; 3.72 µM in the assay on OVCAR-5 ovarian; 2.91 µM with MOLT-4 leukemia; 2.95 µM with SF-295 CNS. The values for the GI50 in the assay with LOX IMVI melanoma and with BT-549 breast were 2.63 µM and 2.76 µM, respectively. Moreover, the TGI in the assay with HCT-116 colon was above 100 µM; in the assay with NCI/ADR-RES ovarian it was 53.9 µM; in the assay with HT29 colon, 60.1 µM; in the assay on OVCAR-5 ovarian, above 100 µM; with MOLT-4 leukemia, 12.9 µM; in the assay with SF-295 CNS, 8.03 µM. The TGI in the assay on LOX IMVI melanoma and in the assay with BT-549 breast was above 100 µM throughout.
Turning to `CCCc1cc2c(=O)c(C(=O)OC)c[nH]c2cc1N(CC)CC`, the GI50 in the assay on HCT-116 colon is 21.5 µM; in the assay with NCI/ADR-RES ovarian it was 24.2 µM; in the assay on HT29 colon, 72.1 µM; in the assay on OVCAR-5 ovarian, above 100 µM; in the assay on MOLT-4 leukemia it was above 100 µM; in the assay on SF-295 CNS, 8.16 µM. Also, the results for the GI50 with LOX IMVI melanoma and with BT-549 breast were 25.8 µM and 39.8 µM, respectively. In addition, the TGI in the assay with HCT-116 colon is 59.1 µM; in the assay with NCI/ADR-RES ovarian, 72.8 µM; in the assay on HT29 colon it was above 100 µM; in the assay with OVCAR-5 ovarian it was above 100 µM; with MOLT-4 leukemia, above 100 µM; with SF-295 CNS, 24.8 µM. Moreover, the TGI in the assay on LOX IMVI melanoma was 77.9 µM; in the assay on BT-549 breast, above 100 µM.
On to `COc1cc(-c2nn(-c3cccc(NC(=O)Nc4cc(C(F)(F)F)cc(C(F)(F)F)c4)c3)cc2-c2ccncc2)ccc1Cl`, for which the GI50 in the assay with HCT-116 colon is 0.442 µM; in the assay on NCI/ADR-RES ovarian, 1.02 µM; in the assay with HT29 colon it was 0.619 µM; in the assay on OVCAR-5 ovarian, 1.09 µM; with MOLT-4 leukemia, 1.08 µM; in the assay with SF-295 CNS, 0.241 µM. The GI50 with LOX IMVI melanoma was 0.783 µM; in the assay with BT-549 breast, 1.26 µM. Besides, the TGI with HCT-116 colon stood at 2.44 µM; with NCI/ADR-RES ovarian, 7.25 µM; in the assay on HT29 colon, 1.68 µM; in the assay with OVCAR-5 ovarian, 3.54 µM; with MOLT-4 leukemia, 4.48 µM; in the assay on SF-295 CNS it was 0.921 µM. The TGI in the assay with LOX IMVI melanoma came to 1.52 µM; with BT-549 breast it was 3.45 µM.
